Data: US20110088107A1, “COMPOSITIONS AND METHODS FOR DERIVING OR CULTURING PLURIPOTENT CELLS” (priority 2009, published 2011)

Key:
[1] = test system: NOD ES cells; assay: Blastocyst injection (2N) and chimera generation from NOD ES lines; format: in vivo, mouse; details: NOD ES line derived and propagated with the inhibitors; 2N injections
Procedure: Diploid B6D2F2 blastocysts (94-98 h after hCG injection) were placed in a drop of M2 medium under mineral oil. A flat-tip microinjection pipette with an internal diameter of 16 μm was used for cell injection using a Piezo micromanipulator (Primetech, Japan). About 10 cells were injected into the blastoceol cavity. After injection, the embryos were cultured in KSOM medium and placed in a 37° C. humidified CO2 chamber until transferred to recipient females. Ten to fifteen injected blastocysts were transferred to each uterine horn of 2.5 days post coitum pseudo-pregnant B6D2F1 females. For teratoma generation, 2*106 cells were injected subcutaneously into both flanks of recipient SCID mice, and tumors were harvested for sectioning 3-6 weeks after initial injection. […] were collagenased and manually dissociated into small pieces and injected subcutaneously in to immuno deficient mice.

[2] = test system: NOD-iPS cells; assay: Dox-independent propagation of Dox-dependent NOD-iPS cells in supplemented mESM; format: cell-based, mouse (NOD); details: mESM lacking Dox
Source text: FIGS. 4(A)-4(H) illustrate generation of genetically unmodified germline competent NOD ES cells. (A) Experimental outline for derivation of iPS lines that grow in the presence of small molecules and in the absence of Dox. Representative images of NOD iPS lines growing in mESM supplemented with the indicated small molecules or growth factors. (B) Single-cell cloning efficiency of NOD iPS cells in different growth conditions. WT or NOD-iPS cells grown in mESM and KP were sorted in 96 well plates and cultured in mESM supplemented with small molecules. The number of wells containing Nanog+ colonies was counted after 6 days. Efficiencies were normalized to that of C57B6/129F1-iPS cells (“permissive” controls) plated in mESM and defined as 100%. SD for average efficiencies from 2 experiments are shown. Student test P value compares KP/CH to PD/CH mESM conditions for NOD iPS cells. (C) Expansion of day E3.5 ICM derived NOD ES cells in the presence of KP, KP/CH or PD/CH and derivation of stable ES lines. Images of initial colonies observed at passage 2 after embryo dissociation are shown together with representative images at later passages. (D) Karyotype of NOD ES lines. (E) Immunostaining of NOD ES lines for pluripotency markers. Inhibitors used during cell line derivation and propagation are indicated. (F) Chimerism in adult mice generated from the indicated cell lines is evident by the presence of agouti (brown) and albino coat color originating from the NOD background. […] (G) Real-Time PCR analysis for endogenous expressed Oct4, c-Myc and Klf4 genes in NOD iPS and ES cells grown in the indicated conditions. Relative expression levels are normalized to levels detected in control 129 ES cells. (H) Southern analysis indicating correct targeting of the endogenous Nanog locus in NOD ES cells with Nanog-GFP knock-in targeting construct.
Small molecules have been identified to replace some of the reprogramming factors in iPS derivation (Huangfu et al., 2008; Shi et al., 2008). […]

[3] = test system: 129 EpiSCs; assay: Conversion of EpiSCs into ICM-like iPS cells; format: cell-based, mouse; details: medium (mESM) supplemented, no transgene
Source text: FIGS. 24(A)-24(B) show small molecule conversion of distinct pluripotent states. ([…] derived from the epiblast of day E5.5 mouse embryos or NOD […] ES cells and were reprogrammed into ICM-like after culture in the mESM+KP/CH. While most colonies differentiated due to withdrawal of bFGF and change of medium (indicated by asterisks), ES-like colonies could be observed after 7-9 days and passaged via trypsinization. Within 2 passages ICM-like ES lines could be stably generated. (B) However, NOD […] which was derived from NOD-ES #43 by withdrawing KP/CH and growing the cells in […] conditions for over 8 passages (FIG. 6F), remained dependent on KP/CH molecules. Factors and growth conditions utilized to facilitate the identity conversion at each step are indicated in parenthesis. The pluripotency state was evaluated and defined based on Oct4 enhancer activity, inhibitor sensitivity (indicated in red or blue accordingly for each line). Identical results were obtained by using PD/CH inhibitor combination or KP alone (data not shown). Work described here further analyzed whether the exogenous stimuli defined in this study could interconvert the two distinct pluripotent states. This work first tested whether infection of previously characterized E5.5 derived 129 […] et al., 2007) with a Klf4 or c-Myc Dox inducible vectors could convert the EpiSCs to an ICM-like pluripotent state. […]

[4] = test system: secondary transgenic MEF line (OSM); details: Lyssiotis et al., 2009; cited from earlier work

In the case of `O=C1Cc2c([nH]c3ccc(Br)cc23)-c2ccccc2N1` [Kenpaullone, 9-bromo-7,12-dihydroindolo[3,2-d][1]benzazepin-6(5H)-one], the “% Chimerism (coat color)” value [1] is reported as 40-90%, the Born chimeras [1] is reported as 17 and the “Germline Transmission” value [1] is reported as “yes”. The “Dox-independent growth of pluripotent NOD-iPS cells” value [2] was “supported Dox-independent growth”, the “conversion of EpiSCs into iPS cells (ICM-like pluripotency)” value [3] was “conversion can be accomplished” and the “replacement of Klf4 during iPS reprogramming” value [4] was “replaces Klf4 during iPS reprogramming”.
